Test: Solubility check: surface profile of coated fluoropolymer film observed by optical microscope
Assay type: physicochemical
Settings: for Solubility: 0.3 wt % with respect to Cytop CTL-809M in perfluorotributylamine/1,1,1,3,3,3-hexafluoropropan-2-ol/Cytop CTL-809M=90/5/5 (parts by weight), applied onto glass substrate, 2 μm film, dried; for Solubility / compatibility with resin: same test as Table 1, coated Cytop CTL-809M film
Experimental: To a mixed solution of perfluorotributylamine/1,1,1,3,3,3-hexafluoropropan-2-ol/Cytop CTL-809M (manufactured by Asahi Glass Co., Ltd.)=90/5/5 (parts by weight), was added the compound represented by formula (1) according to the invention (any of Compounds 1-1 to 1-8) or any of Comparative Compounds C-1 to C-3 as shown below in an amount of 0.3 wt % with respect to the Cytop CTL-809M. Thereafter, the mixed solution was applied onto a glass substrate to a film thickness of 2 μm and dried.

Structure (SMILES) | Solubility | Solubility / compatibility with resin
O=C(CCSc1nnc(S)s1)OCCC(F)(F)C(F)(F)C(F)(F)C(F)(F)C(F)(C(F)(F)F)C(F)(F)F [Compound 1-1] | Compatible | 
CC(C)CCCCCCOC(=O)CCSc1nnc(S)s1 [Compound C-1, reference compound] | Remain partially | remained partially undissolved
O=C(CCSc1nnc(S)s1)OCC(F)(F)C(F)(C(F)(F)C(F)(F)F)C(F)(F)C(F)(F)C(F)(F)C(F)(F)F (centres unmarked) [Compound 1-8] | Compatible | 
O=C(CSc1nnc(S)s1)OCCC(F)(F)C(F)(F)C(F)(F)C(F)(F)C(F)(C(F)(F)F)C(F)(F)F [Compound 1-5] | Compatible | 
O=C(CCSc1nnc(S)s1)OCCC(F)(F)C(F)(F)C(F)(C(F)(F)F)C(F)(F)F [Compound 1-3] | Compatible | 
O=C(CCSc1nnc(S)s1)OCCCC(F)(F)C(F)(F)C(F)(F)C(F)(F)C(F)(C(F)(F)F)C(F)(F)F [Compound 1-7] | Compatible | 
O=C(CCSc1nnc(S)s1)OCCC(F)(F)C(F)(F)C(F)(F)C(F)(F)C(F)(F)C(F)(F)C(F)(C(F)(F)F)C(F)(F)F [Compound 1-4] | Compatible | 
O=C(CSc1nnc(S)s1)OCCC(F)(F)C(F)(F)C(F)(F)C(F)(F)F [Compound C-2, reference compound] | Bleed out (compounds which bleed out are denoted by “Bleed out,”) | bled out on the resin surface
O=C(CCSc1nnc(S)s1)OCC(F)(F)C(F)(F)C(F)(F)C(F)(F)C(F)(C(F)(F)F)C(F)(F)F [Compound 1-6] | Compatible | 
CC(CSc1nnc(S)s1)C(=O)OCCC(F)(F)C(F)(F)C(F)(F)C(F)(F)C(F)(C(F)(F)F)C(F)(F)F (centres unmarked) [Compound 1-2] | Compatible | 
O=C(CSc1nnc(S)s1)OCCC(F)(F)C(F)(F)C(F)(F)C(F)(F)C(F)(F)C(F)(F)C(F)(F)F [Compound C-3, reference compound] | Bleed out slightly | bled out on the resin surface
